Results on two compounds are retold here after article PMC5177923 (2016).

Assay [1] deals with hTeloCFRET (DNA, i motif) TAACCCTAACCCTAACCCTAACCC
Put plainly: FRET melting. Conditions: 100 mM NaCl; 10 mM sodium cacodylate pH 6; 10 μM compound, 200 nM DNA.

The test system of assay [2] is hTeloGFRET (DNA, G4) GGGTTAGGGTTAGGGTTAGGG
Put plainly: FRET melting. The settings on record: 100 mM NaCl; 10 mM sodium cacodylate pH 7.4; 10 μM compound, 200 nM DNA.

The subject of assay [3] is DSFRET (DNA, hairpin, HEG(18) linker (non-nucleotide) between 10 and 11) TATAGCTATATATAGCTATA
Put plainly: FRET melting. The settings on record: 100 mM NaCl; 10 mM sodium cacodylate pH 7.4; 10 μM compound, 200 nM DNA.

For assay [4], the system named is hTeloC (DNA, i motif) TAACCCTAACCCTAACCCTAACCC
The assay is described as follows: circular dichroism. The settings on record: 100 mM NaCl; 10 mM sodium cacodylate pH 5.5, 20 °C.

Assay [5] concerns hTeloCBiotin (DNA, i motif) TAACCCTAACCCTAACCCTAACCC
Put plainly: SPR, equilibrium affinity fit, 1:1 model. Conditions: 100 mM NaCl; 10 mM sodium cacodylate pH 5.5, 0.05% Tween-20, 5% DMSO, 25 °C.

The test system of assay [6] is c-mycBiotin (DNA, i motif) CCTTCCCCACCCTCCCCACCCTCCCCA
The assay is described as follows: SPR, equilibrium affinity fit, 1:1 model. The settings on record: 100 mM NaCl; 10 mM sodium cacodylate pH 5.5, 0.05% Tween-20, 5% DMSO, 25 °C.

Assay [7] has as its system DSBiotin (DNA, duplex) GGCATAGTGCGTGGGCGTTAGC/GCTAACGCCCACGCACTATGCC
Put plainly: SPR, equilibrium affinity fit, 1:1 model. Conditions: 100 mM NaCl; 10 mM sodium cacodylate pH 5.5, 0.05% Tween-20, 5% DMSO, 25 °C.

Consider `CN(C)CCNc1cccc2c1C(=O)c1cccc(NCCNc3ccccc3)c1C2=O`, for which the values for the ΔTm result in assay [1] and in assay [2] were “+17 °C” and “+0.4 °C”, respectively.
As for `O=C1c2c(O)ccc(O)c2C(=O)c2c(NCCNCCO)ccc(NCCNCCO)c21`, the “∆Tm” value in assay [2] was “+16 °C”; in assay [3] it was “+6.4 °C”. The binding result in assay [4] is reported as “yes”. Moreover, the Kd in assay [5] was 12 ± 3 µM; in assay [6], 12 ± 3 µM; in assay [7], ~ 71 ± 22 μM.
